Here are results for 82 molecules from PubChem BioAssay AID1645862 (Buhrlage Lab, Dana-Farber Cancer Institute and Novartis …, 2021).

SMILES strings stand for the structures. Activity calls are given as the source filed them. The rule behind the calls is not given here. Bridge positions count the residues as written; N and C are the ends. Peptide text beside a SMILES is read from it. * marks the point of attachment. ξ: configuration not given here. Pentadecanoyl(3ξ-OH,15-Gua) = N=C(N)NCCCCCCCCCCCCC(O)CC(=O)*

The target of the experiment is Ubiquitin carboxyl-terminal hydrolase 8 (Homo sapiens) (UniProt P40818). Kind of experiment: Ubiquitin-specific protease 8 inhibitors, concentration-effect, biochemical, validation of initial actives (AID 1645862).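 Note: potency reflects inhibition of USP8 cleavage of a ubiquitin rhodamine substrate.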 The settings on record: recombinant USP8 deubiquitinase activity assay.
Ubiquitin carboxyl-terminal hydrolase 8 (Homo sapiens), sequence (P40818 whole entry, looked up): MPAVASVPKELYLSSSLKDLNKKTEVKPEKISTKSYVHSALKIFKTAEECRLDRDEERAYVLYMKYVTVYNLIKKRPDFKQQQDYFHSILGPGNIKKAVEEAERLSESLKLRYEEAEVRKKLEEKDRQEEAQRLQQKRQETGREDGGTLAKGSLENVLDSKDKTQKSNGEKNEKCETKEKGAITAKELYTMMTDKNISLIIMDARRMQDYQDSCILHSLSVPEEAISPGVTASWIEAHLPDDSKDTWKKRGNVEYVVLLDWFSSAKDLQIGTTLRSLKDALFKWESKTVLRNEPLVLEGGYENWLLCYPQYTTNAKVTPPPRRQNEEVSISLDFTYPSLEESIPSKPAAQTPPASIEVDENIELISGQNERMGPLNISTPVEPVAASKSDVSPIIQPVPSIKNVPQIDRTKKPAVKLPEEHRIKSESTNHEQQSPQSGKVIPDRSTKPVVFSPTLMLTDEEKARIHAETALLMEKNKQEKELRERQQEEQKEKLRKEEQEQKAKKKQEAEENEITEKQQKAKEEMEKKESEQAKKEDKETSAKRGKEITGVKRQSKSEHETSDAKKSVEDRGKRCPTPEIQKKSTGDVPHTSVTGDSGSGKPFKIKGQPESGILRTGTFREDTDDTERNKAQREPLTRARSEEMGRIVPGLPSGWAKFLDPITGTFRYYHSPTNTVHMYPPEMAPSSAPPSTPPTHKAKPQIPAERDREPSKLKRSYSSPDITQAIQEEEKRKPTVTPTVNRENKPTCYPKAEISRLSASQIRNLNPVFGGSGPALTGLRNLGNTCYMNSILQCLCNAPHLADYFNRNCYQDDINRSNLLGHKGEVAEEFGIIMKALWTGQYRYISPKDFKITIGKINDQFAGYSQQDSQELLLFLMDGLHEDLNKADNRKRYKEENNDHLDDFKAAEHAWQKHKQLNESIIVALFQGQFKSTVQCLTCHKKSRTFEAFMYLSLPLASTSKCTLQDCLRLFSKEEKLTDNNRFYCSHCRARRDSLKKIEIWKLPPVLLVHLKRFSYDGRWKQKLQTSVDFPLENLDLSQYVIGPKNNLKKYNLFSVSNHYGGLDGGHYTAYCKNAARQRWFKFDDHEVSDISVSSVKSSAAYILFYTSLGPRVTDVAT
Usually IC50 stands for the point on the concentration scale where inhibition reaches its midpoint. `Cc1ccc(CNC(=O)Cn2c(=O)n(CCCC(=O)NCc3ccc(F)cc3)c(=O)c3ccccc32)cc1`: the IC50 was > 40 µM (inactive).
With `Cn1c(SCC(=O)c2ccc(F)cc2)nnc1-c1cc2ccccc2o1`, the IC50 is > 40 µM (inactive).
Consider `Cc1ccc(NC(=O)Nc2ccc(C)n(CC(=O)Nc3ccc(C)cc3C)c2=O)cc1`, for which the IC50 was 26 µM.
Take `Cc1cc(C)c(O)c(-c2cc(C(=O)Nc3ccccc3Cl)[nH]n2)c1`: the IC50 is > 40 µM (inactive).
`COc1ccc(C(CNC(=O)c2cc(-c3ccc(Cl)cc3)on2)N2CCOCC2)cc1` (configuration not stated): the IC50 is > 40 µM (inactive).
As to `CCOc1ccc(NC(=O)Cn2c(-c3ccccc3)cc(C(C)=O)c2C)cc1`, the IC50 is > 40 µM (inactive).
In the case of `O=S1(=O)CCN(Cc2cccnc2)c2c(F)nc(N3CCOCC3)c(F)c21` it was > 40 µM (inactive); in that of `O=C(CNS(=O)(=O)c1ccc(F)cc1)N1CCCC(c2nnc3ccccn23)C1` (configuration not stated), > 40 µM (inactive).
In the case of `CCOc1ccc2nc(NC(=O)c3ccc4ccccc4n3)sc2c1`, the IC50 was > 40 µM (inactive).
For `COc1ccc(NC2c3ccccc3C(=O)N2c2ccccn2)cc1` (configuration not stated), the IC50 is > 40 µM (inactive).
With `COC(=O)c1ccc2c(=O)n(CCCCCC(=O)NCCc3ccccc3Cl)c(=O)[nH]c2c1`, the IC50 is > 40 µM (inactive).
On to `O=C(CCCC(=O)N(c1ccc2c(c1)OCCO2)C(C(=O)NC1CCCCC1)c1ccc(F)cc1)Nc1ccccn1` (configuration not stated), for which the IC50 is > 40 µM (inactive).
Consider `CCCc1nnc(C(=O)Nc2ccc(C(=O)NC(C)c3ccccc3)cc2)s1` (configuration not stated), for which the IC50 is > 40 µM (inactive).
In the case of `O=C1Cc2ccccc2C(=O)N1Cc1cccc(Cl)c1`, the IC50 was 4.12 µM.
The same measure for `Cc1ccc2cc(CNc3ccccc3)c(=O)n(CC(=O)Nc3ccccc3C)c2c1`: > 40 µM (inactive).
In the case of `N#Cc1cc(C(=O)c2cc(Cl)ccc2O)cn(-c2ccccn2)c1=O` it was > 40 µM (inactive).
In the case of `Cc1ccc(-c2nnc3ccc(SCC(=O)N4CCCc5ccccc54)nn23)cc1` it was > 40 µM (inactive).
On to `COc1ccccc1NC(=O)Cn1cc(C(=O)c2ccc(C)cc2)c(=O)c2cc(Cl)ccc21`, for which the IC50 is > 40 µM (inactive).
Consider `O=C(Nc1cc(F)c2nc(N3CCCC3)ccc2c1)c1ccco1`, for which the IC50 was > 40 µM (inactive).
As to `Cc1ccccc1-c1nnc2sc(COc3ccc(Cl)cc3)nn12`, the IC50 was > 40 µM (inactive).
On to `COc1ccc(Cl)cc1NC(=O)Cn1c(=O)n(CCCC(=O)NCc2ccc(C)cc2)c(=O)c2sccc21`, for which the IC50 was > 40 µM (inactive).
In the case of `O=C(Nc1cccc(Br)c1)c1cc(-c2cccnc2)n[nH]1` it was 33.6 µM; in that of `CCc1ccc(OCCn2c(CCNC(=O)C3CCCCC3)nc3ccccc32)cc1`, > 40 µM (inactive); in that of `Cc1ccc2[nH]c(=O)c(-c3nc4ccccn4c3NCc3ccccc3)cc2c1`, > 40 µM (inactive).
On to `COc1cccc(C(=O)Nc2ccc(SC(C(=O)Nc3ccccc3)c3ccccc3)cc2)c1` (configuration not stated), for which the IC50 was > 40 µM (inactive).
For `CCOC(=O)C1CCN(C(=O)c2ccc3c(c2)NC(=O)C2CCCN32)CC1` (configuration not stated), the IC50 was 2.02 µM.
As for `COc1cn(-c2ccc(F)cc2)nc1C(=O)Nc1ccc(Cl)cc1Cl`, the IC50 was 15.1 µM.
As for `CC1NC(=O)C(CC(N)=O)NC(=O)C(C(C)O)NC(=O)C(Cc2ccc(O)cc2)NC(=O)C(C(C)C)NC(=O)C(NC(=O)CC(O)CCCCCCCCCCCCN=C(N)N)C(C)OC1=O` (configuration not stated) ({Pentadecanoyl(3ξ-OH,15-Gua)}-TVYTNA; ester 1-C; configuration not given here), the IC50 is > 40 µM (inactive).
As to `COc1ccc(-c2cc3nc([C@H](C)NC(=O)CC4CCCC4)nn3cn2)cc1`, the IC50 is > 40 µM (inactive).
As to `COc1ccc(NS(=O)(=O)c2cc(NC(=O)CC(=O)c3ccc([N+](=O)[O-])cc3)ccc2Cl)cc1`, the IC50 was > 40 µM (inactive).
Turning to `C=C/C(C)=C/[C@@]1(C)SC(=O)C(C)=C1O`, the IC50 was 14.5 µM.
As for `CC1=C(Cn2c3cccc(=O)c-3nc3ccccc32)CCC(C)(C)C1`, the IC50 is 1.71 µM.
In the case of `COc1ccc(-c2noc(C3(c4ccc(F)cc4)CCOCC3)n2)cc1` it was > 40 µM (inactive).
For the molecule `N#Cc1ccc(NC(=O)Nc2cccn(Cc3ccccc3Br)c2=O)cc1`, the IC50 is > 40 µM (inactive).
With `Cc1ncc(-c2ccc3c(c2)OCO3)c(-c2nccs2)n1`, the IC50 is > 40 µM (inactive).
In the case of `Cc1ccc(NC(=O)Cc2nnc3c(-c4nc(C5CC5)no4)cccn23)c(C)c1`, the IC50 is > 40 µM (inactive).
As for `Cc1cccc(OCC2=NN3C(=N)/C(=C\c4cc(C)n(-c5cccc(F)c5)c4C)C(=O)N=C3S2)c1`, the IC50 is > 40 µM (inactive).
As to `O=C(Cn1cc(C(=O)C(F)(F)F)c2cc(Br)ccc21)N1CCc2ccccc21`, the IC50 is > 40 µM (inactive).
In the case of `COc1cc(=O)c(C(=O)Nc2ccc(C#N)cc2)nn1-c1cccc(F)c1`, the IC50 was > 40 µM (inactive).
As to `O=C(/C=C/c1cccc([N+](=O)[O-])c1)N1CCc2ccccc21`, the IC50 is > 40 µM (inactive).
In the case of `COc1ccc(Sc2nc3ccccc3n3cnnc23)cc1`, the half-inhibitory concentration (IC50) is 32.7 µM.
The same measure for `Cc1cccc(N2C(=O)/C(=C\c3ccc4c(c3)OCCO4)c3ccccc3C2=O)c1`: > 40 µM (inactive); for `CC(C)Cc1nc2sc3c(SCC(=O)N4CCC(C)CC4)ncnc3c2c2c1COC(C)(C)C2`: > 40 µM (inactive); for `CS(=O)(=O)c1ccc2nc(N(Cc3cccnc3)C(=O)c3ccc4ccccc4c3)sc2c1`: > 40 µM (inactive).
Take `COc1ccc(OC)c2c(C)cc(N3CC(C)CC(C)C3)nc12` (configuration not stated): the IC50 is > 40 µM (inactive).
Regarding `Cc1ccc(NC(=O)Nc2ccc(C)n(CC(=O)Nc3cccc(C)c3)c2=O)cc1`, the IC50 is > 40 µM (inactive).
In the case of `COc1ccc(Nc2nnc(Cc3ccc(Cl)cc3)c(=O)[nH]2)cc1` it was 29.2 µM.
In the case of `Cc1ccc(NC(=O)c2cc(-c3ccccn3)nc3c(Cl)cccc23)nc1`, the IC50 was > 40 µM (inactive).
`Fc1cccc(Nc2nc(-c3ccccn3)nc3ccccc23)c1`: the IC50 is > 40 µM (inactive).
In the case of `Cc1nn(-c2ccccc2)c2c1nc(CCC(=O)NC1CCCCC1)c(=O)n2C`, the IC50 was > 40 µM (inactive).
On to `CCn1cc2c(n1)c(=O)n(Cc1ccccc1)c(=O)n2CC(=O)NCc1ccc(C)cc1`, for which the IC50 is > 40 µM (inactive).
Consider `Cc1cccc(-c2nnn3c2nc(NCC2CCCO2)c2ccccc23)c1` (configuration not stated), for which the IC50 is > 40 µM (inactive).
For `Cc1ccc2[nH]c(=O)c(-c3nc4ccc(C)cn4c3NCc3ccc(F)cc3)cc2c1`, the IC50 was > 40 µM (inactive).
Regarding `COc1c2nc3ccccc3oc-2cc(=O)c1OC`, the IC50 is > 40 µM (inactive).
Turning to `CCc1ccc(S(=O)(=O)Nc2ccc(-c3nnc(-c4ccccc4)o3)cc2)cc1`, the IC50 is > 40 µM (inactive).
For the molecule `CCOC(=O)N1CCN(C(=O)c2ccc(CS(=O)c3ccccc3Cl)o2)CC1` (configuration not stated), the IC50 is > 40 µM (inactive).
Take `CCCCNC(=O)CSc1nnc(-c2cc3ccccc3n2C)o1`: the IC50 is > 40 µM (inactive).
The same measure for `CCOc1ccc(-n2c(=O)c3sccc3n(CC(=O)Nc3cccc(C)c3)c2=O)cc1`: > 40 µM (inactive); for `O=C(CCCn1c(=O)c2cc(Cl)ccc2n(CC(=O)Nc2cccc(F)c2)c1=O)NCc1ccco1`: > 40 µM (inactive).
On to `Fc1cc(F)c2[nH]cc(-c3nnnn3-c3ccc4ccccc4c3)c2c1`, for which the IC50 is > 40 µM (inactive).
`Cn1c2ccccc2c(=O)c2c(=O)n(-c3cccc(Cl)c3)c(-c3cccs3)nc21`: the IC50 was 4.52 µM.
For `CCC(=O)Nc1nc2cc(NC(=O)Nc3ccccc3Cl)ccc2s1`, the IC50 is > 40 µM (inactive).
Regarding `Cc1cc(Nc2cccc(Cl)c2)n2nc(-c3cccnc3)nc2n1`, the IC50 was > 40 µM (inactive).
With `O=C(CCCc1nnc2c(=O)n(-c3cccc(F)c3)ccn12)NCc1ccc(Cl)cc1`, the IC50 was > 40 µM (inactive).
With `Cc1ccc(-c2nn(C(C)(C)C)c3ncnc(NS(=O)(=O)c4ccc(Cl)cc4)c23)cc1`, the IC50 is > 40 µM (inactive).
As to `Cc1ccc(NC(=O)Nc2nnc(CC(=O)NCc3ccccc3)s2)cc1F`, the IC50 is > 40 µM (inactive).
For the molecule `O=C(Cn1nnc2ccccc21)Nc1nc(-c2ccc3c(c2)CCN3C(=O)c2ccccc2F)cs1`, the IC50 is > 40 µM (inactive).
In the case of `O=C(Cn1c(=O)n(Cc2ccc3c(c2)OCO3)c(=O)c2ccccc21)NCc1ccco1`, the IC50 is > 40 µM (inactive).
The same measure for `COc1ccc(OC)c(NC(=O)c2sc(-c3ccccc3)nc2C)c1`: > 40 µM (inactive).
With `O=C(CSc1nnc2ccc3ccccc3n12)c1ccc(Cl)cc1`, the IC50 is > 40 µM (inactive).
As to `O=C(Cc1ccc(-n2c(=O)c3ccccc3n(CC(=O)Nc3ccc(Cl)cc3Cl)c2=O)cc1)NCc1ccco1`, the IC50 is > 40 µM (inactive).
Turning to `COC(=O)c1ccc2c(=O)n(CCCCCC(=O)NCCC3=CCCCC3)c(=O)[nH]c2c1`, the IC50 is > 40 µM (inactive).
On to `COc1ccc(NC(=O)Nc2ccc(F)c(-c3nnc(-c4ccccc4)o3)c2)c(OC)c1`, for which the IC50 is > 40 µM (inactive).
In the case of `Cc1cc(=O)n(CC(=O)Nc2ccccc2C)c(Nc2ccc(F)cc2)n1`, the IC50 was > 40 µM (inactive).
The same measure for `Cc1nc(-c2ccc(Cl)cc2)oc1C(=O)Nc1ccc(Cl)cc1`: > 40 µM (inactive).
In the case of `CC(C)n1cc(CN2CCC(C(=O)Nc3cccc(-c4cccc(Cl)c4)c3)CC2)cn1` it was > 40 µM (inactive); in that of `O=C(CNC(=O)c1ccc2nc(-n3cccc3)sc2c1)NCc1ccccc1`, > 40 µM (inactive); in that of `CCC(=O)Nc1nc2cc(NC(=O)Nc3cccc(C)c3)ccc2s1`, > 40 µM (inactive).
On to `CC(=O)c1ccc(N2CCN(S(=O)(=O)c3cc4c(cc3C)NC(=O)CO4)CC2)cc1`, for which the IC50 was > 40 µM (inactive).
In the case of `O=C(Cn1c(=O)c2ccccc2c2ccccc21)Nc1ccc2c(c1)OCO2`, the IC50 was > 40 µM (inactive).
For the molecule `CCc1[nH]c(=O)cc2cc(OC)c(OC)cc12`, the IC50 is 0.722 µM.
The same measure for `Cc1ccc(C(=O)c2cn(CC(=O)Nc3ccccc3)c3ccccc3c2=O)cc1`: > 40 µM (inactive).
